Patent publication US4814348A, “Therapeutic compositions containing derivatives of acrylic acid having an oxygen-containing heterocycle, therapeutic treatment therewith and new compounds” (Roussel Uclaf, priority 1983, dated 1989)

Assays:
[1] = Acute oral toxicity (median lethal dose) in mice; conditions: mouse, in vivo, oral administration
Procedure: The median lethal dose (LD50) was evaluated upon oral administration of the products to mice.

[2] = tested on: total acidity of the gastric secretions; experiment: Gastric antisecretory activity in pylorus-ligated rats (Shay technique); assay type: in vivo; conditions: dose of 10 mg/kg, intraduodenal, male rats, 3 hours
Procedure: B. Determination of the gastric antisecretory activity
The technique used is described by H. Shay et al in Gastro. Enterology, 5 43 (1945).
Male rats are used of a weight of about 200 g, which had been deprived of food for 48 hours, but with 8% glucose solution ad libitum. The pylorus of the rats, which had been slightly anesthetized with ether, is ligated and then, upon the end of the operation, the product to be tested is administered in different doses or, in the case of the control animals, an 0.5% solution of carboxymethyl cellulose is administered intraduodenally, whereupon the abdominal incision is sutured.
Three hours later, the animals are sacrificed and their stomachs removed after ligation of the esophagus.
The gastric juice is removed and centrifuged. The volume is then noted and the total acidity is determined on 100 μl of gastric juice by titration to a pH of 7 by means of 1/100N caustic soda.
The percentages of variation of total acidity of the gastric secretions are calculated, as compared with the results obtained with the control animals.

Compound	LD50 [1] [mg/kg]	percentage of variation of total acidity of the gastric secretions as compared with control animals [2] [%]
O=C(O)C=CC(=O)c1cc2ccccc2o1 [Example 1, 4-(benzofuran-2-yl)-4-oxo-buten-2-oic acid]	350	53
Cc1cc(O)c(C(=O)C=CC(=O)O)c(=O)o1 [Example 2, 4-(2-oxo-4-hydroxy-6-methyl-2H-pyran-3-yl)-4-oxo-buten-2-oic acid]	350	70
O=C(O)C=CC(=O)c1ccco1 [Example 3, 4-(2-furyl)-4-oxo-buten-2-oic acid]	750	94
Cc1nc(C(=O)/C=C/C(=O)O)c(C)o1 [Example 4, Trans 4-(2,5-dimethyl-oxazol-4-yl)-4-oxo-buten-2-oic acid]	350	77
Cc1noc(C)c1C(=O)/C=C/C(=O)O [Example 5, Trans-4(3,5-dimethyl-isoxazol-4-yl)-4-oxo-buten-2-oic acid]	350	87
Cc1ccc(C(=O)/C=C/C(=O)O)o1 [Example 6, Trans 4-(5-methyl-2-furyl)-4-oxo-2-butenoic Acid]	350	75
Cc1cc(C(=O)/C=C/C(=O)O)c(C)o1 [Example 7, Trans 4-(2,5-dimethyl-3-furyl)-4-oxo-2-butenoic Acid]	350	45
